Test results: the Deep4Chem optical property database
Blank lines part the entries; values can stand above or below the compound they belong to.

Assay: solvent given as SMILES

absorption maximum (in CCO): 490 nm
Compound: CNc1ccc2nc3cc(Cl)c(Cl)cc3nc2c1

absorption maximum (in CC#N): 380 nm
Compound: CCOC(=O)c1c2c3c(ccc(F)c3c3cc4c(cc13)[Si](C)(C)O[Si]4(C)C)N(C)C2=O

absorption maximum (in ClCCl): 574 nm
Compound: CCOC(=O)CCCCCn1c2ccc(N)cc2c(=O)c2cc3c(cc21)c(=O)c1cc(N)ccc1n3CCCCCC(=O)OCC

absorption maximum (in ClCCl): 482 nm
Compound: Nc1ccc2c(ccc3[n+]2[B-](F)(F)n2c-3cc3c4ccccc4c4ccccc4c32)c1

absorption maximum (in CCO): 442 nm
Compound: Nc1cc2nc3cc(Br)c(Br)cc3nc2cc1N

absorption maximum (in CC#N): 306.26 nm
absorption maximum (in CCO): 309.39 nm
absorption maximum (in ClCCl): 311 nm
Compound: CN(C)c1cc(-c2ccc(C#Cc3ccncc3)cc2)cc2ccccc12

absorption maximum (in ClCCl): 402 nm
Compound: CCCCCCN1C(=O)c2cccc3c(-c4ccc(-c5cc(-c6ccc(C)cc6)n(-c6ccccc6)n5)s4)ccc(c23)C1=O

absorption maximum (in CC#N): 475 nm
Compound: C[C@]12SC(=O)C=C1c1nc(-c3ccc(Cl)cc3Cl)[nH]c1C1=CC(=O)S[C@@]12C

absorption maximum (in ClCCl): 371 nm
Compound: Cc1ccc2nc3cc4c(cc3c(-c3ccccc3)c2c1)[Si](C)(C)O[Si](C)(C)O[Si]4(C)C

absorption maximum (in CCO): 590 nm
Compound: CC/[NH+]=c1\cc2oc3cc(NCCC(=O)NC(C)C(=O)OC)c4ccccc4c3nc-2cc1C (centres undefined)

absorption maximum (in ClCCl): 733 nm
Compound: CCN(CC)c1ccc2c(-c3ccccc3C(=O)O)c3c([o+]c2c1)/C(=C/c1ccc(N(C)C)s1)CCC3

absorption maximum (in C1CCCCC1): 318 nm
Compound: CCC(C)(C)c1ccc(-c2ccc3c(c2)C(CCOC)(CCOC)c2cc(C(C)(C)CC)ccc2-3)cc1

absorption maximum (in C1CCOC1): 366 nm
Compound: N#Cc1cc(-n2c3ccccc3c3cc(Br)ccc32)c(-n2c3ccccc3c3cc(Br)ccc32)cc1C#N

absorption maximum (in C1CCOC1): 396.5 nm
absorption maximum (in CC#N): 396 nm
absorption maximum (in CCO): 400 nm
absorption maximum (in CN(C)C=O): 409 nm
absorption maximum (in CO): 400 nm
absorption maximum (in CS(C)=O): 405.5 nm
Compound: CSc1sc(C(=O)c2ccccc2)c2nn[nH]c(=O)c12

absorption maximum (in ClCCl): 501 nm
Compound: CC[C@H](C)COc1ccc(C2=C3C(C)=CC(C)=[N+]3[B-](F)(F)n3c(C)cc(C)c32)cc1

absorption maximum (in CC#N): 671 nm
Compound: CN1/C(=C\C=C\C2=C3C=CC(c4ccccc4)=[N+]3[B-](F)(F)n3c2ccc3-c2ccccc2)C(C)(C)c2ccccc21

absorption maximum (in CO): 568 nm
Compound: C#CCOc1ccc(/C=C/C2=[N+]3C(=C(c4ccc(N5CCCCC5)cc4)c4c(C)cc(C)n4[B-]3(F)F)C(C)=C2)cc1

absorption maximum (in ClCCl): 355 nm
Compound: COc1ccc(/C=C/c2ncc(-c3ccccc3)o2)cc1OC

absorption maximum (in CCCCCC): 440 nm
absorption maximum (in CO): 459 nm
Compound: O=C1C=C(Nc2cccc(F)c2)C(=O)c2ccccc21

absorption maximum (in ClC(Cl)Cl): 352 nm
Compound: COc1cc(OC)c2cc(-c3cccc(-c4cc5c(OC)cc(OC)cc5oc4=O)c3)c(=O)oc2c1

absorption maximum (in CN(C)C=O): 537 nm
Compound: Nc1ccc(N2C(=O)c3ccc4c5ccc6c7c(ccc(c8ccc(c3c48)C2=O)c75)C(=O)N(c2ccc(N)cc2)C6=O)cc1

absorption maximum (in C1CCCCC1): 290 nm
Compound: CCOC(=O)CCOc1ccc(C(c2c(C)[nH]c3ccccc23)c2c(C)[nH]c3ccccc23)cc1

absorption maximum (in CCOC(C)=O): 384 nm
Compound: c1cc2ccc3cc4[nH]ccc4c4ccc(c1)c2c34

absorption maximum (in ClCCl): 432 nm
Compound: CC1=NN(c2cccc3ccccc23)[B-](F)(F)[n+]2ccccc21

absorption maximum (in ClCCl): 436 nm
Compound: CN(C)c1ccc(C2=CC3=C(c4ccc(C#N)cc4)[C@H]4c5ccccc5[C@]3(S2)c2ccccc24)cc1

Second part, the compound before the results:

Compound: CCn1c2ccccc2c2cc(C#Cc3cc(C#Cc4ccc5c(c4)c4ccccc4n5CC)ncn3)ccc21
absorption maximum (in C1CCOC1): 382 nm
absorption maximum (in CCOC(C)=O): 379 nm
absorption maximum (in CN(C)C=O): 386 nm
absorption maximum (in Cc1ccccc1): 383 nm
absorption maximum (in ClCCl): 386 nm

Compound: FC(F)(F)C(F)(F)C(F)(F)c1nc2c(-c3ccsc3)cc3c4cc(-c5ccsc5)c5nc(C(F)(F)C(F)(F)C(F)(F)F)nc6c(-c7ccsc7)cc(c7cc(-c8ccsc8)c(n1)c2c37)c4c56
absorption maximum (in C1CCOC1): 538 nm

Compound: S=C1CCCCC1
absorption maximum (in CCO): 495 nm

Compound: C(=C\c1ccc(-c2ccncc2)cc1)/c1ccc(-c2ccncc2)cc1
absorption maximum (in ClCCl): 345 nm

Compound: C1=C(c2ccccc2)C=C(c2ccccc2)/C1=C/C1CCCCC1
absorption maximum (in C1CCOC1): 365 nm

Compound: Cc1cc(C)c(B(c2cc(-c3ccc(N(C)C)cc3)sc2-c2sc(-c3ccc(N(C)C)cc3)cc2P(=O)(c2ccccc2)c2ccccc2)c2c(C)cc(C)cc2C)c(C)c1
absorption maximum (in CO): 435 nm

Compound: CC(C)[Si](C#Cc1c2ccccc2c(C#Cc2c3ccccc3c(C#Cc3c4ccccc4c(C#Cc4c5ccccc5c(C#Cc5c6ccccc6c(C#C[Si](C(C)C)(C(C)C)C(C)C)c6ccccc56)c5ccccc45)c4ccccc34)c3ccccc23)c2ccccc12)(C(C)C)C(C)C
absorption maximum (in Cc1ccccc1): 585 nm

Compound: CCCCC1(CCCC)c2cc(C#Cc3ccc4ccc5cccc6ccc3c4c56)ccc2-c2ccc(C#Cc3ccc4ccc5cccc6ccc3c4c56)cc21
absorption maximum (in C1CCCCC1): 418 nm
absorption maximum (in C1CCOC1): 421 nm
absorption maximum (in CC#N): 420 nm
absorption maximum (in CCOC(C)=O): 419 nm
absorption maximum (in CN(C)C=O): 427 nm
absorption maximum (in Cc1ccccc1): 424 nm
absorption maximum (in ClC(Cl)Cl): 421 nm
absorption maximum (in ClCCl): 424 nm

Compound: N#CC(/N=C/c1c(O)ccc2ccccc12)=C(C#N)/N=C/c1c(O)ccc2ccccc12
absorption maximum (in CC#N): 520 nm

Compound: COCCOc1ccc(OCCOC)c(C=O)c1
absorption maximum (in CC(C)(C)O): 350 nm
absorption maximum (in CC(C)CO): 350 nm
absorption maximum (in CC(C)O): 349 nm
absorption maximum (in CCCCO): 349 nm
absorption maximum (in CCCO): 349 nm
absorption maximum (in CCO): 349 nm
absorption maximum (in CN(C)C=O): 350 nm
absorption maximum (in CNC=O): 350 nm
absorption maximum (in CO): 348 nm
absorption maximum (in NC=O): 353 nm
absorption maximum (in O): 349 nm

Compound: CCCCC(CC)Cn1c2cc(C#N)ccc2c2ccc(C#Cc3cc(C#Cc4ccc5c6ccc(C#N)cc6n(CC(CC)CCCC)c5c4)c4ccc5c(C#Cc6ccc7c8ccc(C#N)cc8n(CC(CC)CCCC)c7c6)cc(C#Cc6ccc7c8ccc(C#N)cc8n(CC(CC)CCCC)c7c6)c6ccc3c4c65)cc21 (centres undefined)
absorption maximum (in ClCCl): 467 nm

Compound: COc1ccc(-c2c3cc4ccccc4cc3c(C#Cc3ccccc3)c3cc4ccccc4cc23)cc1
absorption maximum (in ClCCl): 635 nm

Compound: CCCCN(CCCC)c1ccc(C#Cc2cc(C#Cc3c(F)c(F)c(F)c(F)c3F)c(C#Cc3ccc(N(CCCC)CCCC)cc3)cc2C#Cc2c(F)c(F)c(F)c(F)c2F)cc1
absorption maximum (in ClCCl): 462 nm

Compound: CCCCCCOc1cc2[nH]c(cc2CCOC)c2nc(ccc3[nH]c(cc3CCOC)c3nc1C(CCOC)=C3)C(CCOC)=C2
absorption maximum (in Cc1ccccc1): 684 nm

Compound: N#Cc1ccc(C2=Cc3ccccc3P2(=O)c2ccccc2)cc1 (centres undefined)
absorption maximum (in ClCCl): 350 nm

Compound: CC1(C)c2ccccc2N(c2ccc3c(c2)Oc2ccccc2S3(=O)=O)c2ccccc21
absorption maximum (in Cc1ccccc1): 356 nm

Compound: CCCCn1c(-c2ccc(-c3nnc(-c4ccc(-c5nc(-c6ccccc6)c(-c6ccccc6)n5CCCC)cc4)o3)cc2)nc(-c2ccccc2)c1-c1ccccc1
absorption maximum (in ClCCl): 352 nm

Compound: c1ccc2c(c1)oc1nc3oc4ccc(-n5c6ccccc6c6ccccc65)cc4c3cc12
absorption maximum (in ClC(Cl)Cl): 346 nm

Compound: CN(C)c1ccc(C(=O)Nc2ccc(F)cc2)cc1
absorption maximum (in C1CCCCC1): 307 nm
absorption maximum (in C1CCOC1): 311 nm
absorption maximum (in CC#N): 314 nm
absorption maximum (in CCOCC): 307 nm

Compound: c1ccc2c(c1)-c1ccccc1C21c2ccccc2-c2sc3c(c21)C1(c2ccccc2-c2ccccc21)c1ccccc1-3
absorption maximum (in C1CCOC1): 373 nm

Compound: CC1=CC(/C=C/c2ccc(N(C)C)cc2)=[N+]2C1=C(c1ccc(I)cc1)c1c(C)cc(/C=C/c3ccc(N(C)C)cc3)n1[B-]2(F)F
absorption maximum (in CC#N): 701 nm

Compound: COC(=O)/C(C#N)=c1\s/c(=c2/s/c(=C(/C#N)C(=O)OC)c3cc(-c4ccc5c(c4)C(C)(C)c4ccccc4-5)sc23)c2sc(-c3ccc4c(c3)C(C)(C)c3ccccc3-4)cc12
absorption maximum (in Cc1ccccc1): 630 nm

Compound: CCCCCCc1cc2c(=O)c3cc(CCCCCC)cc4c(=O)c5cc(CCCCCC)cc6c(=O)c(c1)c2n(c34)c65
absorption maximum (in ClCCl): 424 nm

Compound: Nc1ccc(/C=C/c2ccccc2)cc1
absorption maximum (in CC#N): 318 nm
absorption maximum (in CCCCCC): 316 nm

Compound: CCCCOc1c(-c2c(OCCCC)c3oc4cc5ccccc5cc4c3c3ccccc23)c2ccccc2c2c1oc1cc3ccccc3cc12
absorption maximum (in C1CCOC1): 366 nm

Compound: COc1ccc2n1[B-](F)(F)[N+]1=C(c3ccccc3)C=CC1=C2c1ccc(C)cc1
absorption maximum (in C1CCCCC1): 532 nm
absorption maximum (in C1CCOC1): 528 nm
absorption maximum (in C1COCCO1): 529 nm
absorption maximum (in CCOC(C)=O): 526 nm
absorption maximum (in CO): 523 nm
absorption maximum (in Cc1ccccc1): 534 nm
absorption maximum (in ClC(Cl)Cl): 530 nm

Compound: Cc1ccc2oc(-c3cc4cc(C)ccc4oc3=O)cc2c1
absorption maximum (in CC#N): 372 nm
absorption maximum (in CCOC(C)=O): 374 nm
absorption maximum (in CS(C)=O): 377 nm
absorption maximum (in Cc1ccccc1): 378 nm
absorption maximum (in O): 351 nm

Compound: O=c1[nH]c(=O)c2scc([C@H]3C[C@H](O)[C@@H](CO)O3)c2[nH]1
absorption maximum (in CC#N): 296 nm
absorption maximum (in CCOC(C)=O): 296 nm
absorption maximum (in CO): 294 nm
absorption maximum (in O): 294 nm

Compound: C[Si]1(c2ccccc2)C(c2ccc3c(c2)c2ccccc2n3-c2ccccc2)=C(c2ccccc2)C(c2ccccc2)=C1c1ccc2c(c1)c1ccccc1n2-c1ccccc1
absorption maximum (in C1CCOC1): 404 nm

Compound: C[Si]1(C)c2cc(-c3ccccc3)ccc2C=Cc2ccc(-c3ccccc3)cc21
absorption maximum (in ClCCl): 379 nm

Compound: C[Si](C)(C)O[Si]1(O[Si](C)(C)C)n2c3c4ccccc4c2/N=C2N=C(/N=c4/c5ccccc5/c(n41)=N/C1=NC(=N\3)/c3ccccc31)c1ccccc1\2
absorption maximum (in CN(C)C=O): 668 nm

Compound: C(=C\c1cc(-c2ccccc2)c(/C=C/c2ccc(N(c3ccccc3)c3ccccc3)cc2)cc1-c1ccccc1)/c1ccc(N(c2ccccc2)c2ccccc2)cc1
absorption maximum (in ClCCl): 415 nm

Compound: Cc1ccc(C2CC(c3ccc(O)cc3)=NN2c2ccc(S(N)(=O)=O)cc2)cc1 (centres undefined)
absorption maximum (in C1CCOC1): 359 nm
absorption maximum (in C1COCCO1): 360 nm
absorption maximum (in CC#N): 358 nm
absorption maximum (in CC(C)O): 358 nm
absorption maximum (in CCO): 358 nm
absorption maximum (in CCOC(C)=O): 358 nm
absorption maximum (in CN(C)C=O): 362 nm
absorption maximum (in CO): 357 nm
absorption maximum (in CS(C)=O): 364 nm
absorption maximum (in O): 360 nm

Compound: CN(C)c1ccc(C#Cc2ncnc3ccccc23)cc1
absorption maximum (in ClCCl): 384 nm
